Data: patent US20240318218A1 (The Trustees of Columbia University in The City of New York, priority 2023, published 2024)

Target: T1, human NADK (ATP-NAD+ kinase), recombinant, C-terminal 6x-histidine tag (Homo sapiens, UniProt O95544)
T1 construct: 6x-histidine (C); made in house; host or cells: E. coli BL21(DE3)
T1 sequence (O95544 1-446): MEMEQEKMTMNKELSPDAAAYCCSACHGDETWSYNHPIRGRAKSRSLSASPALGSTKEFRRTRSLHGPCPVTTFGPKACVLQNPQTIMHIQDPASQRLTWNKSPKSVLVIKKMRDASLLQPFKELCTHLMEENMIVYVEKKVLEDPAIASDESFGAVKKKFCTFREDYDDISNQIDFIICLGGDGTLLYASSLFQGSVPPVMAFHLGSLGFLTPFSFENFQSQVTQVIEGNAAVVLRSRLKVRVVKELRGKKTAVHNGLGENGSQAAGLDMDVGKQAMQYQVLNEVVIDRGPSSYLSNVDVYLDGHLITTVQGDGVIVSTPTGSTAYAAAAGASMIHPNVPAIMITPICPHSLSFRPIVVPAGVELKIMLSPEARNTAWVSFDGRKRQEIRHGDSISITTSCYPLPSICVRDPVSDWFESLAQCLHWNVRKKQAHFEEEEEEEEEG
Assay: Affinity of human NADK for NAD+ compared with pigeon, duck and cat NADK
Assay type: biochemical
Details: human NADK relative to pigeon
Experimental: Recombinantly-expressed NADKs were explored for their reversible activities. It was hypothesized that the reversibility of the pigeon enzyme would enable compensation for the high picolinic acid […] (PC) activity present in pigeon livers, which inhibits NAD^+ biosynthesis from dietary tryptophan. […] It was determined that human NADK has an affinity for NAD^+ that is about 600 times higher than the pigeon, duck and cat isoforms. Without wishing to be bound by theory, NAD^+ serves as a product inhibitor for the reverse human NADK activity, which accounts for the observed irreversible behavior. While each of the NADKs explored were “reversible,” the reverse activity of the human enzyme is impeded via product inhibition. […]
Referring now to FIGS. 3A-3B, initial rate kinetic experiments were performed with pigeon, duck, cat, and human NADK enzymes in both the forward and reverse directions. […] In FIG. 3B, the production of ATP was detected in a coupled reaction with firefly luciferase where ATP was converted to light, the relative luminescence (RLU) was monitored, and a standard curve was used to calculate the ATP concentration.

affinity for NAD^+, times higher than the pigeon, duck and cat isoforms: about 600 times
SMILES: NC(=O)c1ccc[n+]([C@@H]2O[C@H](COP(=O)([O-])OP(=O)(O)OC[C@H]3O[C@@H](n4cnc5c(N)ncnc54)[C@H](O)[C@@H]3O)[C@@H](O)[C@H]2O)c1 [NAD]
